Experimental data taken from publication PMC10072326, “Promising anticancer agents based on 8-hydroxyquinoline hydrazone copper(II) complexes” (Frontiers in Chemistry, 2023).

Tests used:
[1] = Thermodynamic solubility at pH 7.4; assay type: physicochemical; conditions: Cu(II) complexes; pH 7.40; 20 mM HEPES; 25.0°C
Method: Thermodynamic solubility (S) was measured for the new ligands, L^7 and L^8, since data for the rest of the series was previously reported (9), and for selected Cu(II) complexes: 1, 5 and 6. Solubility was measured for the saturated solutions in water at pH 7.40 in 20 mM HEPES at 25.0 ± 0.1 °C. The concentration was determined by UV-Vis spectrophotometry using the stock solutions of the compounds with known concentrations dissolved in 100% DMSO, 50% and 25% (v/v) DMSO/buffered aqueous solutions for the calibration.

A-375 cells [2] = assay: Sulforhodamine B (SRB) cell viability assay; assay type: cell-based; conditions: 72 h
Method: (§1) Copper compounds were tested, along with the free ligands and cisplatin as the positive control, for their cytotoxicity on both melanoma (A-375) and lung adenocarcinoma (A-549) cell lines in the concentration range 0.78–50 μM. Following 72 h of incubation, cell viability was measured via sulforhodamine B (SRB) assay (Supplementary Figure S25).
(§2) A-375 cells (ATCC, CRL-3222) were grown in Dulbecco’s Modified Eagle Medium with high glucose (Gibco #11965118) and A-549 (ATCC, CCL-185) cells were grown in Dulbecco’s Modified Eagle Medium F-12 (Gibco #11320033), supplemented with 10% FBS (Gibco, #10500064) and Penicillin-Streptomycin (10,000 U/mL, Gibco, #15140122). Cells were incubated at 37 °C, 5% CO2 incubator and subcultured every 3 days.
(§3) All the tested complexes were dissolved in DMSO (10 mM stock solution), and aliquots were stored at -20 °C, thawed on the experiment day and used only once. For SRB cell viability assay, A-375 and A-549 cells were seeded on 96-well plates (4×10^3 cells/well) and treated with serial dilutions of indicated compounds (with a concentration range of 0-50 μM, 72 h). Trichloroacetic acid (TCA) was added to wells for fixation at a final concentration of 10%, for 1 h at 4 °C. Each well was washed five times with ddH2O, dried, and incubated with 0.4% (w/v) SRB dye (50 µL/well) for 30 min at room temperature. The wells were washed with 1% acetic acid (v/v) five times, and 150 µL of 10 mM Tris solution was added to dissolve the stain. Colorimetric measurements were taken at λ = 564 nm. Viability percentage was calculated as follows: % Cell Viability = [100 × (sample Abs.-blank) / (non-treated control Abs.-blank)].

A-549 cells [3] = assay: Sulforhodamine B (SRB) cell viability assay; assay type: cell-based; conditions: 72 h
Method: as §1, §2, §3

S. aureus ATCC 25928 = assay: MIC determination; assay type: cell-based, Staphylococcus aureus; conditions: S. aureus ATCC 25928 (sensitive); 18 h
Method: (§4) Wild-type Escherichia coli K-12 AG100 strain [argE3 thi-1 rpsL xyl mtl Δ(gal-uvrB) supE44] expressing the AcrAB TolC efflux pump at its basal level and Klebsiella pneumoniae ATCC 49619 Gram-negative strains were studied in the experiments. Sensitive (ATCC 25928) and the methicillin-resistant (MRSA 272123) subspecies of Staphylococcus aureus were used as Gram-positive strains in the assays.
(§5) Minimum inhibitory concentration (MIC) values of selected compounds were determined in 96-well plates based on the Clinical and Laboratory Standard Institute guidelines (CLSI guidelines). The stock solutions of the compounds were dissolved in DMSO using 1.3 μL of Mueller Hinton Broth, and then two-fold serial dilutions were performed. The starting concentration of the compounds was 100 μM. Then 10^‒4 dilution of an overnight bacterial culture in 100 μL of medium was added to each well, except for the medium control wells.

S. aureus MRSA 272123 = assay: MIC determination; assay type: cell-based, Staphylococcus aureus; conditions: 18 h
Method: as §4, §5

[4] = tested on: Escherichia coli K-12 AG100; assay: MIC determination; assay type: cell-based; conditions: E. coli; 18 h
Method: as §4, §5

[5] = tested on: Klebsiella pneumoniae ATCC 49619; assay: MIC determination; assay type: cell-based; conditions: K. pneumoniae; 18 h
Method: as §4, §5

A-549 cells [6] = assay: ROS activation via dihydroethidium staining, flow cytometry; assay type: cell-based
From the text: Since reactive oxygen species appeared to be involved in the nicking activity of the complexes (Supplementary Figure S24), we investigated whether there was an increase in ROS formation in cells upon drug treatment. Dihydroethidium (DHE) is a reduced form of ethidium, after oxidation with superoxide (ROS), it is converted into 2-hydroxy ethidium, which is a chemical that emits red fluorescence and intercalates DNA. […] Similar results were obtained using A-549 cells, but with much milder induction of ROS except for 8, which remained high (Supplementary Figure S26).
(§6) 5 × 10^4 number of A-375 and A-549 cells were seeded on 12-well plates, and the next day cells were treated with either copper complexes (calculated IC70 values) or cisplatin (15 μM). Following 48 h of treatment, cells were trypsinized, centrifuged and resuspended in PBS solution supplemented with 1% fetal bovine serum (FBS) (10^6 cells/mL).
Oxidative stress levels were assessed by Muse Oxidative Stress Kit (Luminex, MCH100111) using the same protocol as previously described (21).

A-375 cells [7] = assay: γH2AX staining for DNA double-strand breaks; assay type: cell-based
Method: Indeed, we examined whether DNA nicks induced by the complexes on pure plasmid DNA would reflect in cell culture as increased DNA break formation. To test this, A-375 cells were stained using γH2AX, which is a common marker for DSBs (Figure 7B). […] For complex 1 the opposite effect was observed and despite its lower ability to induce ROS formation, the DSB were the highest among the group.
as §6
The Muse ɣH2A.X Activation Dual Detection Kit (Luminex, MCH200101) protocols were followed with minor changes. 1 × 10^5 cells were mixed with ice-cold 1X Fixation Buffer at the same volume for 5 min. Cells were centrifuged (600 g, 5 min), and the pellet was suspended with 100 μL of ice-cold 1X Permeabilization Buffer (10 min, on ice), and centrifuged again. The cell pellet was resuspended with 50 μL of antibody mixture of (20X) Anti-phospho-Histone H2A.X (Ser139), Alexa Fluor 555 and (20X) Anti-H2A.X, PECy5 antibodies. Following 30 min of antibody staining, cells were centrifuged and resuspended with 1X Assay Buffer. DNA breaks were analysed with Muse Cell Analyzer (Merck Millipore).

A-375 cells [8] = assay: Cytotoxicity with ROS scavenger NAC (SRB); assay type: cell-based; conditions: 10 mM NAC pre-treatment 2 h, co-treatment 72 h
From the text: (§7) Additionally, to assess whether the ROS induction contributed to the cytotoxicity triggered by these complexes, we used a ROS scavenger, N-acetyl-cysteine (NAC), in combination with 1, 3, 5 or 8. […] Indeed, it is also possible that the cytotoxicity induced by 5 is not by ROS, despite the induction observed in Figure 7A.
(§8) Figure S27- Protective mechanism of NAC against Cu(II) complexes. Addition of NAC can protect cells from the cytotoxic effects of the Cu(II) complexes A-375 (A) and A-549 (B) cells were pre-treated with 10 mM of ROS scavenger N-acetylcysteine (NAC) for 2 h, then co-treated with freshly prepared Cu(II) complexes (1, 3, 5 and 8) for 72 h. Cell viability was measured via SRB assay (2 biological replicates, each done in duplicate). The error bars represent standard error of the mean. Student t-test was used for statistical analysis, *p<0.05, **p<0.01

A-549 cells [9] = assay: Cytotoxicity with ROS scavenger NAC (SRB); assay type: cell-based; conditions: 10 mM NAC pre-treatment 2 h, co-treatment 72 h
From the text: as §7, §8

A-375 cells [10] = assay: Apoptosis by Annexin V/7-AAD and Caspase 3/7 flow cytometry; assay type: cell-based; conditions: 48 h, Annexin-V and caspase 3/7
Method: To determine the mode of cell death, A-375 cells were incubated with the Cu complexes and cisplatin for 48 h and, induction of apoptosis was evaluated using both Annexin-V staining and activation of caspase 3/7 in response to drug treatment. While Annexin-V staining relies on the loss of plasma membrane asymmetry, caspases 3 and 7 are critical proteases, which are responsible for the cleavage of many cellular proteins. […] Similar results were obtained in A-549 cells (Supplementary Figure S28).
as §6
Annexin V & Dead Cell Kit (Luminex, MCH100105) protocols were followed for Annexin V activation. Briefly, 1 × 10^5 cells were stained with Annexin V and 7-AAD solution in a 1:1 ratio and incubated at room temperature for 20 min. The apoptotic cell population was evaluated with Muse Cell Analyzer (Merck Millipore).
Caspase-3/7 Kit (Luminex, MCH100108) protocols were followed for Caspase 3/7 staining. 2 × 10^5 cells were stained with 5 μL of Caspase 3/7 antibody (1:8 dilution in PBS) and incubated at room temperature for 30 min. Then, the cells were stained with 100 μL of 7-AAD antibody mixture (1:75 dilution with 1 × Assay Buffer) for 5 min. Caspase 3/7 and 7-AAD positivity were assessed with Muse Cell Analyzer (Merck Millipore).

In the case of `[Cu+2].[O-]C(=NN=Cc1ccc2cccc([O-])c2n1)c1ccncc1` [Complex 8, [Cu(L^8)]3], the “thermodynamic solubility S 7.4” value [1] is reported as 3.3 ± 0.3 µM, the IC50 (A-375 cells [2]) is reported as 2.8 ± 0.4 µM and the IC50 (A-549 cells [3]) is reported as 5.1 ± 0.2 µM. For the same compound, the MIC (S. aureus ATCC 25928) was > 100 µM, the MIC (S. aureus MRSA 272123) was > 100 µM and the MIC [4] was > 100 µM. For the same compound, the MIC [5] was > 100 µM, the “ROS induction, in words” value (A-549 cells [6]) was “remained high” and the “DSB induction (γH2AX), in words” value (A-375 cells [7]) was “highest levels of DSB induction”. The “effect of NAC on cytotoxicity” value (A-375 cells [8]) was “significantly reduced”, the “effect of NAC on cytotoxicity” value (A-549 cells [9]) was “significantly reduced” and the “induction of apoptosis, in words” value (A-375 cells [10]) was “most effective drug among the complexes tested”.
